Test results taken from US20220162163A1, “ALANINE-BASED MODULATORS OF PROTEOLYSIS AND ASSOCIATED METHODS OF USE” (Arvinas Operations, Inc., priority 2015, published 2022).

Assays:
Assay type in all cases: cell-based
[1] = target: T1, JNK1 (Homo sapiens, UniProt P45983); test: Cellular assay of JNK degradation (A549 cells, Western blot), JNK1; conditions: for JNK1 degradation range: PROTAC concentration 1 μM, relative to DMSO control; for DC50: read-out: JNK1 DC50 range
T1 construct: A549 lung adenocarcinoma cells were purchased from ATCC and cultured in RPMI1640 Medium; endogenous in cells; host or cells: A549
Method: (§1) Protocol of the cellular assay of JNK degradation (A549 cells, Western blot). A549 lung adenocarcinoma cells were purchased from ATCC and cultured in RPMI1640 Medium (Gibco) supplemented with 10% Fetal Bovine Serum (Gibco). […] Cells were stimulated with PMA (Phorbol 12-myristate 13-acetate, Sigma) for 1 hour before harvesting. Cells were lysed in Cell Signaling lysis buffer supplemented with protease inhibitors (Thermo). The lysates were centrifuged at 20,000×g for 15 minutes to clarify, and protein concentration was determined by BCA (Pierce). Equal amounts of protein (5 micrograms) were separated by SDS-PAGE and transferred onto nitrocellulose membranes. The mermbranes were probed with antibodies against SAPK/JNK (Cell Signaling #9252), phospho-c-Jun (Cell Signaling #3270), MDM2 (Sigma M4308) and p53 (Cell Signaling #2527). HRP-conjugated anti-rabbit and anti-mouse secondary antibodies were from Cell Signaling. The bands were visualized with SuperSignal West Femto Substrate (Thermo). Quantitation was done using Image Lab Software v5.2.1.

[2] = target: T2, JNK2 (Homo sapiens, UniProt P45984); test: Cellular assay of JNK degradation (A549 cells, Western blot), JNK2; conditions: for JNK2 degradation range: PROTAC concentration 1 μM, relative to DMSO control; for DC50: read-out: JNK2 DC50 range
T2 construct: A549 lung adenocarcinoma cells were purchased from ATCC and cultured in RPMI1640 Medium; endogenous in cells; host or cells: A549
Method: as §1

[3] = target: T3, Androgen receptor (AR) (Homo sapiens, UniProt P10275); test: Cellular assay of androgen receptor (AR) degradation (VCaP cells, ELISA); conditions: for Dmax at 1 µM: 4 h, androgen receptor, VCaP cells, PROTAC concentration 1 μM, relative to DMSO control, read-out: Target protein degradation range; for Androgen receptor (AR) degradation in VCaP cells: @ 1 μM
T3 construct: endogenous in cells; host or cells: VCaP
T3 sequence (P10275 1-920): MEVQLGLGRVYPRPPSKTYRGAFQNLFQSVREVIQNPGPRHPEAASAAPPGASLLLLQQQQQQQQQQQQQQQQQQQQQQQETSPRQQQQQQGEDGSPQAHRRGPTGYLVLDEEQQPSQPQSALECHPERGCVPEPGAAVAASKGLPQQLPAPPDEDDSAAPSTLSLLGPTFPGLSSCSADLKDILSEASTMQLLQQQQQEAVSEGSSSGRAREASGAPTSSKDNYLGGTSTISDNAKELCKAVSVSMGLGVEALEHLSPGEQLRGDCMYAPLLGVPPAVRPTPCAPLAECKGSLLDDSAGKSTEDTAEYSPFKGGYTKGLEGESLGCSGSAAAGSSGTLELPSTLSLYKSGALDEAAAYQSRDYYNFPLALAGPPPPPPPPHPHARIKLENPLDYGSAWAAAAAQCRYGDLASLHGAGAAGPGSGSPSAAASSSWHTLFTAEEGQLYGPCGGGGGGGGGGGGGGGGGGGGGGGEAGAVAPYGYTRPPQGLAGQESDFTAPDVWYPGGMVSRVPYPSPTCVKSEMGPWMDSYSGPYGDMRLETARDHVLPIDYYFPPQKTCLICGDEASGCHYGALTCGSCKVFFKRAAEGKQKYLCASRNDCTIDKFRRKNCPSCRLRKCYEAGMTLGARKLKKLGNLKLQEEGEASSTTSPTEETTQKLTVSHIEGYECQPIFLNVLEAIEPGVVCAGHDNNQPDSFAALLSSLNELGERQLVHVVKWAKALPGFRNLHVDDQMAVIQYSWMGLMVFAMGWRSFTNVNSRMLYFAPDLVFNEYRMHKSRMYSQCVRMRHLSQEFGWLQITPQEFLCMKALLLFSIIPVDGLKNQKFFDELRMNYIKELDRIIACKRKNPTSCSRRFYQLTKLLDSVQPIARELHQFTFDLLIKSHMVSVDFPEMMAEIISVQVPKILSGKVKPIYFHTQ
Method: Protocol of the Cellular Assay of Androgen Receptor (AR) Degradation (VCaP Cells, ELISA).
For detection Cell Signaling PathScan Sandwich Elisa Catalog #12850 Lot 11 was used. VCaP cells were cultured in ATCC DMEM+ATCC FBS and plated 40,000/well 100 μl/well in RPMI P/S with 5% CSS Omega (bovine) serum into a 96 well plate. The cells were grown for a minimum of 3 days, dosed with compounds in 0.1% DMSO (diluted with 5% CSS) and incubated with aspiration for 4 hours. 100 μl of 1× Cell Signaling lysis buffer #9803 (36 ml dH2O+4 ml Cell Signaling lysis buffer) was added. The incubation was placed on cold room shaker for 10 min at speed 8-9. 5 μl to 100 μl of Diluent was transferred to Elisa plate (0.15 ug/ml-0.075 ug/ml) and stored at 4 C overnight on cold room shaker speed 5 (gentle swirl) and then shaken next morning at 37° C. for 30 min. The preparation was washed 4×200 μl with Elisa wash buffer and aspirated with eight-channel aspirator. 100 μl/well of AR detection Ab was added after which the preparation was covered and shaken at 37° C. for 1 hr. 100 ul TMB was added, and the mixture was shaken for 5 min while under observation. When TMB turned light blue, 100 ul of Stop solution was added, and the mixture was shaken and read at 450 nm. Also read at 562 for background subtraction.

T2 sequence (P45984 whole entry): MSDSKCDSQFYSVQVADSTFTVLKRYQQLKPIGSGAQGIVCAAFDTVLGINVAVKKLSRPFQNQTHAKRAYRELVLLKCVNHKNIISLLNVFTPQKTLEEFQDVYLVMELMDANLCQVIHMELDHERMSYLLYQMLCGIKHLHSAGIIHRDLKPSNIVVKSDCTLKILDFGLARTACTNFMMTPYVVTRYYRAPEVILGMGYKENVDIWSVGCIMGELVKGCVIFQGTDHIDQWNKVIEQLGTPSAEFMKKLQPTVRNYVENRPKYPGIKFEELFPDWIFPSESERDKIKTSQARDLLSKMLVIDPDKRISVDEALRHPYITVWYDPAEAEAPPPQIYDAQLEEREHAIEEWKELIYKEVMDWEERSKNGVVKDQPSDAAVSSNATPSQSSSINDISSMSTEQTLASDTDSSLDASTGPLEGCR
T1 sequence (P45983 whole entry): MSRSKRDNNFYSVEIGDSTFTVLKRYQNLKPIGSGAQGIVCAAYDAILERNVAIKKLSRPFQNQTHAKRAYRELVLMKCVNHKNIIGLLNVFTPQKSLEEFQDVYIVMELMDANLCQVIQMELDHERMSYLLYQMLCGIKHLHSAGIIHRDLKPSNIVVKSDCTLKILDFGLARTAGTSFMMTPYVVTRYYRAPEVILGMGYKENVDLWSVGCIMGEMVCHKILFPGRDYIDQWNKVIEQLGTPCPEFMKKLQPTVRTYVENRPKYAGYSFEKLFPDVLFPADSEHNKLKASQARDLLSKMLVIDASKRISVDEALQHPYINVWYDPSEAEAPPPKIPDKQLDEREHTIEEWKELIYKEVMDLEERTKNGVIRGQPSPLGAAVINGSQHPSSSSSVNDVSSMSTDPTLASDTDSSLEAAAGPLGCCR

| Compound | JNK1 degradation range [1] | DC50 [1] | JNK2 degradation range [2] | DC50 [2] | Dmax at 1 µM [3] | Androgen receptor (AR) degradation in VCaP cells [3] |
| --- | --- | --- | --- | --- | --- | --- |
| CN[C@@H](C)C(=O)N[C@H](C(=O)N1CC[C@@H]2CCN(CCc3ccc(OCCOCCOC4CCC(Nc5nccc(-c6cnn(Cc7ccccc7)c6N(C)C)n5)CC4)cc3)C[C@@H]21)C1CCCCC1 (mixture of isomers) [Example 17, (2S)—N-[(1S)-1-cyclohexyl-2-oxo-2-[6-(2-[4-[2-(2-[[(1r,4r)-4-([4-[1-benzyl-5-(dimethylamino)-1H-pyrazol-4-yl]pyrimidin-2-yl]amino)cyclohexyl]oxy]ethoxy)ethoxy]phenyl]ethyl)-octahydro-1H-pyrrolo[2,3-c]pyridin-1-yl]ethyl]-2-(methylamino)propanamide] | A (degradation more than 60%) | 100 to 1000 nM | A (degradation more than 60%) | 100 to 1000 nM |  |  |
| CN[C@@H](C)C(=O)N[C@H](C(=O)N1CCC[C@H]1C(=O)N[C@H]1c2ccccc2C[C@H]1OCCOCCOCCOc1ccc(N2C(=S)N(c3ccc(C#N)c(C(F)(F)F)c3)C(=O)C2(C)C)cc1)C(C)(C)C [Example 36, (2S)—N-[2-(2-[2-[2-(4-[3-[4-cyano-3-(trifluoromethyl)phenyl]-5,5-dimethyl-4-oxo-2-sulfanylideneimidazolidin-1-yl]phenoxy)ethoxy]ethoxy]ethoxy)-2,3-dihydro-1H-inden-1-yl]-1-[(2S)-3,3-dimethyl-2-[(2S)-2-(methylamino)propanamido]-butanoyl]pyrrolidine-2-carboxamide] |  |  |  |  | 0 to 30% |  |
| CN[C@@H](C)C(=O)N[C@H](C(=O)N1CCC[C@H]1C(=O)N[C@H]1c2ccccc2C[C@H]1OCCOCCOCCOCCOc1ccc(N2C(=S)N(c3ccc(C#N)c(C(F)(F)F)c3)C(=O)C2(C)C)cc1)C(C)(C)C [Example 37] |  |  |  |  | 0 to 30% |  |
| CN[C@@H](C)C(=O)N[C@H](C(=O)N1CCC[C@H]1C(=O)N[C@H]1c2ccccc2C[C@H]1OCCOCCOc1ccc(C(=O)N[C@H]2C(C)(C)[C@H](Oc3ccc(C#N)c(Cl)c3)C2(C)C)cc1)C(C)(C)C [Example 38, 1-[3,3-dimethyl-2-[(2S)-2-(methylamino)propanamido]-butanoyl]-N-[(1S,2R)-2-[2-[2-(4-[[(1r,3r)-3-(3-chloro-4-cyanophenoxy)-2,2,4,4-tetramethylcyclobutyl]carbamoyl]phenoxy)ethoxy]ethoxy]-2,3-dihydro-1H-inden-1-yl]pyrrolidine-2-carboxamide] |  |  |  |  | 0 to 30% |  |
| CN[C@@H](C)C(=O)N[C@H](C(=O)N1CCC[C@H]1C(=O)N[C@H]1c2ccccc2C[C@H]1OCCOCCOc1ccc(N2C(=S)N(c3ccc(C#N)c(C(F)(F)F)c3)C(=O)C2(C)C)cc1)C(C)(C)C [drawing 254, (2S)—N-[(1S,2R)-2-{2-[2-(4-{3-[4-cyano-3-(trifluoromethyl)phenyl]-5,5-dimethyl-4-oxo-2-sulfanylideneimidazolidin-1-yl}phenoxy)ethoxy]ethoxy}-2,3-dihydro-1H-inden-1-yl]-1-[(2S)-3,3-dimethyl-2-[(2S)-2-(methylamino)propanamido]butanoyl]pyrrolidine-2-carboxamide] |  |  |  |  |  | 29% |
| CN[C@@H](C)C(=O)N[C@H](C(=O)N1CCC[C@H]1C(=O)N[C@H]1c2ccccc2C[C@H]1OCCOCCOCCOc1ccc(N2C(=S)N(c3ccc(C#N)c(C(F)(F)F)c3)C(=O)C2(C)C)cc1)C(C)(C)C [drawing 255, (2S)—N-[(1S,2R)-2-(2-{2-[2-(4-{3-[4-cyano-3-(trifluoromethyl)phenyl]-5,5-dimethyl-4-oxo-2-sulfanylideneimidazolidin-1-yl}phenoxy)ethoxy]ethoxy}ethoxy)-2,3-dihydro-1H-inden-1-yl]-1-[(2 S)-3,3-dimethyl-2-[(2S)-2-(methylamino)propanamido]butanoyl]pyrrolidine-2-carboxamide] |  |  |  |  |  | 9% |
| CN[C@@H](C)C(=O)N[C@H](C(=O)N1CCC[C@H]1C(=O)N[C@H]1c2ccccc2C[C@H]1OCCOCCOCCOCCOc1ccc(N2C(=S)N(c3ccc(C#N)c(C(F)(F)F)c3)C(=O)C2(C)C)cc1)C(C)(C)C [drawing 256, (2S)—N-[(1S,2R)-2-{[1-(4-{3-[4-cyano-3-(trifluoromethyl)phenyl]-5,5-dimethyl-4-oxo-2-sulfanylideneimidazolidin-1-yl}phenyl)-1,4,7,10-tetraoxadodecan-12-yl]oxy}-2,3-dihydro-1H-inden-1-yl]-1-[(2S)-3,3-dimethyl-2-[(2S)-2-(methylamino)propanamido]butanoyl]pyrrolidine-2-carboxamide] |  |  |  |  |  | 9% |

The next lines start with results.

| JNK1 degradation range [1] | DC50 [1] | JNK2 degradation range [2] | DC50 [2] | Compound | Dmax at 1 µM [3] | Androgen receptor (AR) degradation in VCaP cells [3] |
| --- | --- | --- | --- | --- | --- | --- |
| A (degradation more than 60%) | 1 to 100 nM | A (degradation more than 60%) | 100 to 1000 nM | CN[C@@H](C)C(=O)N[C@H](C(=O)N1CC[C@@H]2CCN(CCc3ccc(OCCOCCOCCOC4CCC(Nc5nccc(-c6cnn(Cc7ccccc7)c6N(C)C)n5)CC4)cc3)C[C@@H]21)C1CCCCC1 (mixture of isomers) [Example 18, (2S)—N-[(1S)-1-cyclohexyl-2-oxo-2-[6-[2-(4-[2-[2-(2-[[(1r,4r)-4-([4-[1-benzyl-5-(dimethylamino)-1H-pyrazol-4-yl]pyrimidin-2-yl]amino)cyclohexyl]oxy]ethoxy)-ethoxy]ethoxy]phenyl)ethyl]-octahydro-1H-pyrrolo[2,3-c]pyridin-1-yl]ethyl]-2-(methylamino)propanamide] |  |  |
| A (degradation more than 60%) | 1 to 100 nM | A (degradation more than 60%) | 100 to 1000 nM | CN[C@@H](C)C(=O)N[C@H](C(=O)N1CC[C@@H]2CCN(CCc3ccc(OCCOCCOCCOCCOC4CCC(Nc5nccc(-c6cnn(Cc7ccccc7)c6N(C)C)n5)CC4)cc3)C[C@@H]21)C1CCCCC1 (mixture of isomers) [Example 19, (2S)—N-[(1S)-1-cyclohexyl-2-oxo-2-(6-[2-[4-([1-[(1r,4r)-4-([4-[1-benzyl-5-(dimethylamino)-1H-pyrazol-4-yl]pyrimidin-2-yl]amino)cyclohexyl]-1,4,7,10-tetraoxadodecan-12-yl]oxy)phenyl]ethyl]-octahydro-1H-pyrrolo[2,3-c]pyridin-1-yl)ethyl]-2-(methylamino)propanamide] |  |  |
| A (degradation more than 60%) | 1 to 100 nM | B (degradation between 30% and 60%) |  | CN[C@@H](C)C(=O)N[C@H](C(=O)N1CCC[C@H]1c1nc(-c2ccc(OCCOCCOCCOCCOCCO[C@H]3CC[C@H](Nc4nccc(-c5cnn(Cc6ccccc6)c5N(C)C)n4)CC3)c3ccccc23)cs1)C1CCCCC1 [Example 12, (2S)—N-[(1S)-1-cyclohexyl-2-oxo-2-[(2S)-2-[4-[4-([1-[(1r,4r)-4-([4-[1-benzyl-5-(dimethylamino)-1H-pyrazol-4-yl]pyrimidin-2-yl]amino)cyclohexyl]-1,4,7,10,13-pentaoxapentadecan-15-yl]oxy)naphthalen-1-yl]-1,3-thiazol-2-yl]pyrrolidin-1-yl]ethyl]-2-(methylamino)propanamide] |  |  |
